tested on: Smad2/Smad3 phosphorylation; test: Phospho-Smad2/3 Inhibition Assay (western blot), Panc-1; format: cell-based, human; details: at 10 μM, Panc-1 pancreatic cancer cell line; starred symbols = activation
Procedure: Protocol for Phospho-Smad2/3 Inhibition Assay
This assay is referred to as the “Phospho-Smad2/3 Inhibition Assay” throughout this application.
Cell lines: Human tumor-derived pancreatic cancer cell line Panc-1 (expressing KRas G12D mutant) and mouse muscle myoblast C2C12 were purchased from American Type Culture Collection and grown in complete DMEM-High Glucose, supplemented with penicillin (100 U/mL), streptomycin (100 μg/mL), and 10% heat-inactivated FBS at 37° C. in a humidified incubator with 5% CO2.
Method: Cells were plated at 350000 cells/well density in a 12-well plate, allowed 3 hours to adhere to the plate, then starved in the appropriate medium in the presence of 0.5% FBS overnight. The small molecules to be tested were added to the cells in the final concentration of 10 μM in the presence of 0.3% DMSO for 3 hours incubation at 37° C. For IC50 value determination, serial dilutions of compounds were added to cells under the same conditions. Next, Panc-1 cells were stimulated with 10 ng/ml TGF-b1 for 1 hour, and C2C12 cells were stimulated with 10 ng/ml TGF-b1 for 20 minutes (recombinant human TGF-b1, R&D Systems). After stimulation cells were lysed with lysis buffer containing 1% Triton X-100, EDTA, and Halt™ Protease & Phosphatase Inhibitor Cocktail (Thermo Scientific). Protein concentration was assessed by BCA protein assay (Thermo Scientific). Phosphorylation level of Smad2/Smad3 was determined by western blot.
Western blot protocol: Equal amounts of protein (15-50 μg) were separated by SDS-PAGE and transferred to nitrocellulose membranes (Invitrogen by Thermo Fisher Scientific). The membrane was stained with Ponceau S Stain (Boston BioProducts) to verify uniform protein loading. Membranes were blocked with 10% milk and phosphorylation levels of Smad2/Smad3 were assessed by incubating overnight at 4° C. with the following antibodies: Phospho-Smad2 (Ser465/467) and Phosph-Smad3 (Ser423/425), both from Cell Signaling Technology. Then the membranes were incubated with HRP-conjugated secondary antibody (Jackson Immunoresearch, West Grove, PA). Bands were incubated in Amersham ECL Prime Western Blotting Detection Reagent (GE Healthcare) and visualized using the ChemiDoc MP imaging system (Bio-Rad).

Structure (SMILES)	% inh of Smad2/3 phosphorylation in Panc-1
Cc1c(-c2ccn(C)n2)cn2nc(-c3nccn3C)nc(Nc3ccn(C4CC4)n3)c12 [Compound 111, N-(1-Cyclopropyl-1H-pyrazol-3-yl)-5-methyl-2-(1-methyl-1H-imidazol-2-yl)-6-(1-methyl-1H-pyrazol-3-yl)pyrrolo[2,1-f][1,2,4]triazin-4-amine]	D* (D* = 76-100% activation)
COc1cccnc1Nc1nc(-c2nccn2C)nn2cc(-c3ccn(C)n3)c(C)c12 [Compound 112, N-(3-Methoxypyridin-2-yl)-5-methyl-2-(1-methyl-1H-imidazol-2-yl)-6-(1-methyl-1H-pyrazol-3-yl)pyrrolo[2,1-f][1,2,4]triazin-4-amine]	D* (D* = 76-100% activation)
Cc1c(-c2ccn(C)n2)cn2nc(-c3nccn3C)nc(Nc3n[nH]c(C4CC4)n3)c12 [Compound 113, N-(5-Cyclopropyl-1H-1,2,4-triazol-3-yl)-5-methyl-2-(1-methyl-1H-imidazol-2-yl)-6-(1-methyl-1H-pyrazol-3-yl)pyrrolo[2,1-f][1,2,4]triazin-4-amine]	D* (D* = 76-100% activation)
COc1ccnc(Nc2nc(-c3nccn3C)nn3cc(-c4ccn(C)n4)c(C)c23)n1.Cl [Compound 114, N-(4-Methoxypyrimidin-2-yl)-5-methyl-2-(1-methyl-1H-imidazol-2-yl)-6-(1-methyl-1H-pyrazol-3-yl)pyrrolo[2,1-f][1,2,4]triazin-4-amine hydrochloride salt]	D* (D* = 76-100% activation)
Cc1c(-c2ccn(C)n2)cn2nc(-c3nccn3C)nc(Nc3ncccn3)c12.Cl [Compound 115, 5-Methyl-2-(1-methyl-1H-imidazol-2-yl)-6-(1-methyl-1H-pyrazol-3-yl)-N-(pyrimidin-2-yl)pyrrolo[2,1-f][1,2,4]triazin-4-amine hydrochloride salt]	A (A = 1-25% inhibition)
COc1cnc(Nc2nc(-c3nccn3C)nn3cc(-c4ccn(C)n4)c(C)c23)nc1.Cl [Compound 117, N-(5-Methoxypyrimidin-2-yl)-5-methyl-2-(1-methyl-1H-imidazol-2-yl)-6-(1-methyl-1H-pyrazol-3-yl)pyrrolo[2,1-f][1,2,4]triazin-4-amine hydrochloride salt]	A (A = 1-25% inhibition)
Cc1c(-c2ccn(C)n2)cn2nc(-c3nccn3C)nc(Nc3nnco3)c12.Cl [Compound 119, N-(5-Methyl-2-(1-methyl-1H-imidazol-2-yl)-6-(1-methyl-1H-pyrazol-3-yl)pyrrolo[2,1-f][1,2,4]triazin-4-yl)-1,3,4-oxadiazol-2-amine hydrochloride salt]	B* (B* = 26-45% activation)
Cc1c(-c2ccn(C)n2)cn2nc(-c3nccn3C)nc(Nc3cnccn3)c12 [Compound 120, 5-Methyl-2-(1-methyl-1H-imidazol-2-yl)-6-(1-methyl-1H-pyrazol-3-yl)-N-(pyrazin-2-yl)pyrrolo[2,1-f][1,2,4]triazin-4-amine]	A* (A* = 1-25% activation)
Cc1c(-c2ccn(C(C)C)n2)cn2nc(-c3nccn3C)nc(Nc3nccc(OCCO)n3)c12 [Compound 121, 2-((2-((6-(1-Isopropyl-1H-pyrazol-3-yl)-5-methyl-2-(1-methyl-1H-imidazol-2-yl)pyrrolo[2,1-f][1,2,4]triazin-4-yl)amino)pyrimidin-4-yl)oxy)ethan-1-ol]	A (A = 1-25% inhibition)
COCCOc1cc(Nc2nc(-c3nccn3C)nn3cc(-c4ccn(C(C)C)n4)c(C)c23)ncn1 [Compound 122, 6-(1-Isopropyl-1H-pyrazol-3-yl)-N-(6-(2-methoxyethoxy)pyrimidin-4-yl)-5-methyl-2-(1-methyl-1H-imidazol-2-yl)pyrrolo[2,1-f][1,2,4]triazin-4-amine]	C (C = 46-75% inhibition)
Cc1c(-c2ccn(C(C)C)n2)cn2nc(-c3nccn3C)nc(Nc3cc(OCCN(C)C)ncn3)c12 [Compound 123, N-(6-(2-(Dimethylamino)ethoxy)pyrimidin-4-yl)-6-(1-isopropyl-1H-pyrazol-3-yl)-5-methyl-2-(1-methyl-1H-imidazol-2-yl)pyrrolo[2,1-f][1,2,4]triazin-4-amine]	B (B = 26-45% inhibition)
Cc1c(-c2ccn(C(C)C)n2)cn2nc(-c3nccn3C)nc(Nc3ncc[nH]3)c12 [Compound 125, N-(1H-Imidazol-2-yl)-6-(1-isopropyl-1H-pyrazol-3-yl)-5-methyl-2-(1-methyl-1H-imidazol-2-yl)pyrrolo[2,1-f][1,2,4]triazin-4-amine]	B (B = 26-45% inhibition)
COCCO[C@H]1C[C@H](Nc2nc(-c3nccn3C)nn3cc(-c4ccn(C)n4)c(C)c23)C1 [Compound 130, N-((1r,3r)-3-(2-Methoxyethoxy)cyclobutyl)-5-methyl-2-(1-methyl-1H-imidazol-2-yl)-6-(1-methyl-1H-pyrazol-3-yl)pyrrolo[2,1-f][1,2,4]triazin-4-amine]	C (C = 46-75% inhibition)
CO[C@H]1C[C@@H](Nc2nc(-c3nccn3C)nn3cc(-c4ccn(C)n4)c(C)c23)C1 [Compound 131, N-((1s,3s)-3-Methoxycyclobutyl)-5-methyl-2-(1-methyl-1H-imidazol-2-yl)-6-(1-methyl-1H-pyrazol-3-yl)pyrrolo[2,1-f][1,2,4]triazin-4-amine]	0 (0 = 0% inhibition)
Cc1c(-c2ccn(C3CC3)n2)cn2nc(-c3nccn3C)nc(O)c12 [Compound 134, 6-(1-Cyclopropyl-1H-pyrazol-3-yl)-5-methyl-2-(1-methyl-1H-imidazol-2-yl)pyrrolo[2,1-f][1,2,4]triazin-4-ol]	B (B = 26-45% inhibition)
COc1cc(Nc2nc(-c3nccn3C)nn3cc(-c4ccn(C5CC5)n4)c(C)c23)ncn1 [Compound 135, 6-(1-Cyclopropyl-1H-pyrazol-3-yl)-N-(6-methoxypyrimidin-4-yl)-5-methyl-2-(1-methyl-1H-imidazol-2-yl)pyrrolo[2,1-f][1,2,4]triazin-4-amine]	A* (A* = 1-25% activation)
Cc1c(-c2ccn(C)n2)cn2nc(-c3nccn3C)nc(Nc3cc(OC(C)C)ccn3)c12 [Compound 136, N-(4-Isopropoxypyridin-2-yl)-5-methyl-2-(1-methyl-1H-imidazol-2-yl)-6-(1-methyl-1H-pyrazol-3-yl)pyrrolo[2,1-f][1,2,4]triazin-4-amine]	A (A = 1-25% inhibition)
Cc1c(-c2ccn(C3CC3)n2)cn2nc(-c3nccn3C)nc(Nc3cc(OC(F)(F)F)ccn3)c12 [Compound 138, 6-(1-Cyclopropyl-1H-pyrazol-3-yl)-5-methyl-2-(1-methyl-1H-imidazol-2-yl)-N-(4-(trifluoromethoxy)pyridin-2-yl)pyrrolo[2,1-f][1,2,4]triazin-4-amine]	A* (A* = 1-25% activation)
Cc1c(-c2ccn(C3CC3)n2)cn2nc(-c3nccn3C)nc(Nc3cc(OC(F)F)ccn3)c12 [Compound 139, 6-(1-Cyclopropyl-1H-pyrazol-3-yl)-N-(4-(difluoromethoxy)pyridin-2-yl)-5-methyl-2-(1-methyl-1H-imidazol-2-yl)pyrrolo[2,1-f][1,2,4]triazin-4-amine]	A* (A* = 1-25% activation)
Cc1c(-c2ccn(C3CC3)n2)cn2nc(-c3nccn3C)nc(Nc3cc(OCC(F)(F)F)ccn3)c12 [Compound 140, 6-(1-Cyclopropyl-1H-pyrazol-3-yl)-5-methyl-2-(1-methyl-1H-imidazol-2-yl)-N-(4-(2,2,2-trifluoroethoxy)pyridin-2-yl)pyrrolo[2,1-f][1,2,4]triazin-4-amine]	A (A = 1-25% inhibition)
Cc1c(-c2ccn(C3CC3)n2)cn2nc(-c3nccn3C)nc(Nc3cc(OCCO)ccn3)c12 [Compound 146, 2-((2-((6-(1-Cyclopropyl-1H-pyrazol-3-yl)-5-methyl-2-(1-methyl-1H-imidazol-2-yl)pyrrolo[2,1-f][1,2,4]triazin-4-yl)amino)pyridin-4-yl)oxy)ethan-1-ol]	C (C = 46-75% inhibition)
Cc1c(-c2ccn(C3CC3)n2)cn2nc(-c3nccn3C)nc(Nc3cc(OCCN(C)C)ccn3)c12 [Compound 147, 6-(1-Cyclopropyl-1H-pyrazol-3-yl)-N-(4-(2-(dimethylamino)ethoxy)pyridin-2-yl)-5-methyl-2-(1-methyl-1H-imidazol-2-yl)pyrrolo[2,1-f][1,2,4]triazin-4-amine]	C (C = 46-75% inhibition)

Reference: patent US12459951B2, “Compounds that interact with RAS superfamily proteins for treatment of cancers, inflammatory diseases, rasopathies, and fibrotic disease” (SHY Therapeutics, LLC, priority 2022, dated 2025)
